Results taken from patent publication US9364467B2 (Salix Pharmaceuticals, Ltd, priority 2012, dated 2016).
Converted amounts (≈) assume the structure as drawn. Like-named read-outs stand apart in the source and are kept apart here.

Key:
[1] = tested on: S. aureus; assay: In vitro activity (MIC) against S. aureus strains; conditions: Staphylococcus aureus
[2] = tested on: Enterobacteriaceae spp. strains; assay: In vitro activity (MIC) against Enterobacteriaceae spp. strains

COC1/C=C/O[C@@]2(C)Oc3c(C)c(O)c4c(O)c(c5c(c4c3C2=O)NC2C=C(C)C=CN52)NC(=O)/C(C)=C\C=C\C(C)C(O)C(C)C(O)C(C)C(O)C1C (stereo partly shown) [25-desacetyl rifaximin]
MIC ([1]; strain ATCC S. aureus 29213): 0.5 µg/mL (≈ 0.67 µM)
MIC ([1]; strain S. aureus 215): 16 µg/mL (≈ 21.5 µM)
MIC ([1]; strain S. aureus 234): 2 µg/mL (≈ 2.68 µM)
MIC ([1]; strain S. aureus 236): 16 µg/mL (≈ 21.5 µM)
MIC ([1]; strain S. aureus 237): 2 µg/mL (≈ 2.68 µM)
MIC ([1]; strain S. aureus 238): 0.25 µg/mL (≈ 0.335 µM)
MIC ([1]; strain S. aureus 246): 2 µg/mL (≈ 2.68 µM)
MIC ([1]; strain S. aureus 252): 4 µg/mL (≈ 5.36 µM)
MIC ([1]; strain S. aureus 253): 1 µg/mL (≈ 1.34 µM)
MIC ([1]; strain S. aureus 267): 16 µg/mL (≈ 21.5 µM)
MIC ([1]; strain S. aureus 272): 2 µg/mL (≈ 2.68 µM)
MIC ([1]; strain S. aureus 279): 0.25 µg/mL (≈ 0.335 µM)
MIC ([1]; strain S. aureus 327): 4 µg/mL (≈ 5.36 µM)
MIC ([1]; strain S. aureus 328): 2 µg/mL (≈ 2.68 µM)
MIC ([1]; strain S. aureus 329): 4 µg/mL (≈ 5.36 µM)
MIC ([1]; strain S. aureus 339): 16 µg/mL (≈ 21.5 µM)
MIC ([1]; strain S. aureus 345): 2 µg/mL (≈ 2.68 µM)
MIC ([1]; strain S. aureus 355): 2 µg/mL (≈ 2.68 µM)
MIC ([1]; strain S. aureus 406): > 16 µg/mL
MIC ([1]; strain S. aureus 408): 2 µg/mL (≈ 2.68 µM)
MIC ([1]; strain S. aureus 409): 1 µg/mL (≈ 1.34 µM)
MIC ([1]; strain S. aureus 416): 2 µg/mL (≈ 2.68 µM)
MIC ([1]; strain S. aureus 425): > 16 µg/mL
MIC ([1]; strain S. aureus 436): 2 µg/mL (≈ 2.68 µM)
MIC ([1]; strain S. aureus 475): 4 µg/mL (≈ 5.36 µM)
MIC [2]: 128 µg/mL (≈ 172 µM)
MIC50 [2]: 128 µg/mL (≈ 172 µM)
MIC90 [2]: 256 µg/mL (≈ 343 µM)
MIC ([2]; Citrobacter freundii, C. freundii 57): 128 µg/mL (≈ 172 µM)
MIC ([2]; Citrobacter freundii, C. freundii 58): 128 µg/mL (≈ 172 µM)
MIC ([2]; Citrobacter freundii, C. freundii 65): 128 µg/mL (≈ 172 µM)
MIC ([2]; Citrobacter freundii, C. freundii 68): 256 µg/mL (≈ 343 µM)
MIC ([2]; Citrobacter freundii, C. freundii 69): 128 µg/mL (≈ 172 µM)
MIC ([2]; Citrobacter freundii, C. freundii 1070): 128 µg/mL (≈ 172 µM)
MIC ([2]; Citrobacter freundii, C. freundii 1073): 256 µg/mL (≈ 343 µM)
MIC ([2]; Citrobacter freundii, C. freundii 1075): 128 µg/mL (≈ 172 µM)
MIC ([2]; Enterobacter cloacae, E. cloacae 1): 128 µg/mL (≈ 172 µM)
MIC ([2]; Enterobacter cloacae, E. cloacae 3): 128 µg/mL (≈ 172 µM)
MIC ([2]; Enterobacter cloacae, E. cloacae 8): 256 µg/mL (≈ 343 µM)
MIC ([2]; Enterobacter cloacae, E. cloacae 12): 128 µg/mL (≈ 172 µM)
MIC ([2]; Enterobacter cloacae, E. cloacae 13): 128 µg/mL (≈ 172 µM)
MIC ([2]; Enterobacter cloacae, E. cloacae 14): 128 µg/mL (≈ 172 µM)
MIC ([2]; Enterobacter cloacae, E. cloacae 16): 128 µg/mL (≈ 172 µM)
MIC ([2]; Enterobacter cloacae, E. cloacae 20): 128 µg/mL (≈ 172 µM)
MIC ([2]; Enterobacter cloacae, E. cloacae 321): 128 µg/mL (≈ 172 µM)
MIC ([2]; Enterobacter cloacae, E. cloacae 348): 256 µg/mL (≈ 343 µM)
MIC ([2]; Enterobacter cloacae, E. cloacae 349): 128 µg/mL (≈ 172 µM)
MIC ([2]; Enterobacter cloacae, E. cloacae 358): 128 µg/mL (≈ 172 µM)
MIC ([2]; Enterobacter cloacae, E. cloacae 367): 128 µg/mL (≈ 172 µM)
MIC ([2]; Enterobacter cloacae, E. cloacae 369): 256 µg/mL (≈ 343 µM)
Range (MIC) ([2]; Enterobacteriaceae spp. strains): 128 to 256 µg/mL
MIC ([2]; Escherichia coli, ATCC E. Coli 25922): 128 µg/mL (≈ 172 µM)
MIC ([2]; Escherichia coli, E. coli 6): 128 µg/mL (≈ 172 µM)
MIC ([2]; Escherichia coli, E. coli 15): 128 µg/mL (≈ 172 µM)
MIC ([2]; Escherichia coli, E. coli 34): 128 µg/mL (≈ 172 µM)
MIC ([2]; Escherichia coli, E. coli 37): 128 µg/mL (≈ 172 µM)
MIC ([2]; Escherichia coli, E. coli 41): 128 µg/mL (≈ 172 µM)
MIC ([2]; Escherichia coli, E. coli 43): 128 µg/mL (≈ 172 µM)
MIC ([2]; Escherichia coli, E. coli 44): 256 µg/mL (≈ 343 µM)
MIC ([2]; Escherichia coli, E. coli 46): 128 µg/mL (≈ 172 µM)
MIC ([2]; Escherichia coli, E. coli 47): 128 µg/mL (≈ 172 µM)
MIC ([2]; Escherichia coli, E. coli 48): 256 µg/mL (≈ 343 µM)
MIC ([2]; Escherichia coli, E. coli 49): 128 µg/mL (≈ 172 µM)
MIC ([2]; Escherichia coli, E. coli 56): 128 µg/mL (≈ 172 µM)
MIC ([2]; Escherichia coli, E. coli 62): 128 µg/mL (≈ 172 µM)
MIC ([2]; Escherichia coli, E. coli 71): 128 µg/mL (≈ 172 µM)
MIC ([2]; Escherichia coli, E. coli 90): 128 µg/mL (≈ 172 µM)
MIC ([2]; Escherichia coli, E. coli 92): 128 µg/mL (≈ 172 µM)
MIC ([2]; Escherichia coli, E. coli 93): 256 µg/mL (≈ 343 µM)
MIC ([2]; Escherichia coli, E. coli 95): 128 µg/mL (≈ 172 µM)
MIC ([2]; Escherichia coli, E. coli 96): 128 µg/mL (≈ 172 µM)
MIC ([2]; Escherichia coli, E. coli 97): 128 µg/mL (≈ 172 µM)
MIC ([2]; Escherichia coli, E. coli 100): 128 µg/mL (≈ 172 µM)
MIC ([2]; Escherichia coli, E. coli 102): 128 µg/mL (≈ 172 µM)
MIC ([2]; Escherichia coli, E. coli 103): 128 µg/mL (≈ 172 µM)
MIC ([2]; Escherichia coli, E. coli 109): 128 µg/mL (≈ 172 µM)
MIC ([2]; Escherichia coli, E. coli 110): 256 µg/mL (≈ 343 µM)
MIC ([2]; Escherichia coli, E. coli 112): 128 µg/mL (≈ 172 µM)
MIC ([2]; Escherichia coli, E. coli 113): 128 µg/mL (≈ 172 µM)
